The target in one data set is T1, Sirtuin 1 (Homo sapiens, UniProt Q96EB6).
T1 sequence (Q96EB6 1-747): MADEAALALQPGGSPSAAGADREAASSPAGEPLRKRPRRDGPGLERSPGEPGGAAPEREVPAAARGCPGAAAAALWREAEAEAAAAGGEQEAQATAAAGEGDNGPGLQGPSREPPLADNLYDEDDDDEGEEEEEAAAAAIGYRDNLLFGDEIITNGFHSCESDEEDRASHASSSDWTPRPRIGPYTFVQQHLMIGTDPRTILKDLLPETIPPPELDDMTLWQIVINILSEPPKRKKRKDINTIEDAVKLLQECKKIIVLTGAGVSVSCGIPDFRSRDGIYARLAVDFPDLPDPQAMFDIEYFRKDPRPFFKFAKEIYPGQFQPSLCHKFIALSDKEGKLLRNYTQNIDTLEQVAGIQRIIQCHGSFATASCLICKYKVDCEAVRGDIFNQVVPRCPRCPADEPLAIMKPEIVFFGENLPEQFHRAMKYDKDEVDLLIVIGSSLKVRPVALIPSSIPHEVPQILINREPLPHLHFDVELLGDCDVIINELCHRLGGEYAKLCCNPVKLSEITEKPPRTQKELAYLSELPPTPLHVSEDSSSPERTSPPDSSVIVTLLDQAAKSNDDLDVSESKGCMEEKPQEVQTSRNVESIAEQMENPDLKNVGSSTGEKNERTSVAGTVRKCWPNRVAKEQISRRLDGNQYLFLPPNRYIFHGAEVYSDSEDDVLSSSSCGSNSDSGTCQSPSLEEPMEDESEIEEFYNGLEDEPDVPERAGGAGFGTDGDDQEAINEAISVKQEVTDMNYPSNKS
As to the kind of experiment: HDAC enzyme assay, Sirtuin 1. The class given is biochemical.

The next data set deals with T2, Sirtuin 2 (Homo sapiens, UniProt Q8IXJ6).
T2 sequence (Q8IXJ6 1-389): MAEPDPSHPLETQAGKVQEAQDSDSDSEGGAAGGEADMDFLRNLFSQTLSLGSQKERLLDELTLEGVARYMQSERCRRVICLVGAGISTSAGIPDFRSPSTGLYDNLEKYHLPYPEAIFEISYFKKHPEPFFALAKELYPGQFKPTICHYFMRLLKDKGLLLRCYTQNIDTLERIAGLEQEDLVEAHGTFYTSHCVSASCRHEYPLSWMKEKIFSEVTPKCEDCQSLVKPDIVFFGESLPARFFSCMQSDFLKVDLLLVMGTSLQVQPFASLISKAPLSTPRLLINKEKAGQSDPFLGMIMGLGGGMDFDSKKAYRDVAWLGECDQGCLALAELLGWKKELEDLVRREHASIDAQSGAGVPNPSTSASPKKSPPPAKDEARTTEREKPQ
As to the kind of experiment: HDAC enzyme assay, Sirtuin 2. The class given is biochemical.

The next data set deals with acetylated α-tubulin. The data set can be described thus: Acetylation of α-tubulin in MM.1S cells. The class given is cell-based. The settings on record: increasing doses, 18 hours.
Data set [1] has as its system acetylation of lysine on Histone H3 and Histone H4. The data set can be described thus: Acetylation of Histone H3 and H4 in MM.1S cells. In kind it is cell-based. The conditions noted are these: compared to SAHA.
Data set [2] relates to ac-α-tubulin. As to the kind of experiment: Western blot of ac-α-tubulin in CD138+ MM patient cells. The class given is cell-based, human. The settings on record: 2 μM, 4 hours.
Data set [3] deals with ac-α-tubulin. As to the kind of experiment: Immunohistochemistry of ac-α-tubulin in CD138+ MM patient cells. The settings on record: treated vs control. The class given is cell-based, human.
The test system of the next data set is acetyl-Histone H3. The data set can be described thus: Immunohistochemistry of acetyl-Histone H3 in CD138+ MM patient cells. In kind it is cell-based, human. The settings on record: treated vs control.
Data set [4] concerns osteoblasts (OBLs) differentiated from BMSCs derived from MM patients. As to the kind of experiment: AlamarBlue viability assay of osteoblasts. The class given is cell-based, human. The settings on record: Compound A 1 μM and/or bortezomib 2.5 nM, 10-14 and 21 days. How it is done: Alamarblue was added to the wells to a final concentration of 10% alamar blue and the plates were incubated at […] and 5% CO2 for 1 to 4 hours. The plates were read at absorbance (OD) of 530 nm and 600 nm. The delta OD was recorded and the date were plotted as percentage of control.
The control (ctr) represents the OBL without any treatment. Cell viability was assessed by Alamarblue assay (a redox indicator that yields a colorimetric change and a fluorescent signal in a response to a metabolic activity) (Invitrogen, Carlsbad, Calif.). […] (FIG. 1A alarm blue after 14 days of differentiation in BMSC derived from patient 1, FIG. 1C alarm blue after 21 days of differentiation in BMSC derived from the same patient, FIG. 2A alarm blue after 14 days of differentiation in BMSC derived from patient 2, FIG. 2C alarm blue after 21 days of differentiation in BMSC derived from patient 2, FIG. 3A alarm blue after 10 days of differentiation in BMSC derived from patient 3).

Data set [5] shares this test system. The data set can be described thus: Alkaline phosphatase (ALP) activity assay of osteoblasts. In kind it is cell-based, human. The conditions noted are these: Compound A 1 μM and/or bortezomib 2.5 nM, 10-14 and 21 days. How it is done:
Following the AlamarBlue cell viability assay, the wells were then washed twice with PBS fixed for 5 minutes and washed again with distilled water and Alkaline Phosphatase Yellow (pNPP) Liquid Substrate System for ELISA (sigma-aldrich) was added to the wells. The plates were read at OD of 405 nm after 5 minutes of incubation.
(FIG. 1B ALP after 14 days of differentiation in BMSC derived from patient 1, FIG. 1D ALP after 21 days of differentiation in BMSC derived from the same patient, FIG. 2B ALP after 14 days of differentiation in BMSC derived from patient 2, FIG. 2D ALP after 21 days of differentiation in BMSC derived from patient 2, FIG. 3B ALP after 10 days of differentiation in BMSC derived from patient 3).

Data set [6] has the same test system. As to the kind of experiment: Alizarin red staining of calcium deposits in osteoblasts. The class given is cell-based, human. The conditions noted are these: OBLs differentiated in presence of Compound A and/or bortezomib, 23 days. From the text:
To evaluate calcium deposition, osteoblasts were washed with PBS and fixed after 23 days of treatment and assayed by alizarin red staining (Alizarin red solution, Millipore) that specifically stains mineralization area. The mineralization areas were visualized using Nikon Labophot-2 microscope with 10×/0.25 lens equipped with SPOT-insight QE camera.
The results shown in FIG. 4A “CTR alpha-mem” represent the BMSCs that have not been differentiated in OBL. The results shown in FIG. 4B “CRT OBL medium” represent the OBL without any treatment.

Data set [7] has as its system osteoclasts (OCLs) differentiated from PBMCs from MM patients. As to the kind of experiment: Osteoclastogenesis, TRAP staining. In kind it is cell-based, human.
The subject of data set [8] is osteoclasts differentiated from MM patient bone marrow. The data set can be described thus: PIT formation assay (bone resorption). In kind it is cell-based, human. The conditions noted are these: Compound A 1 μM and/or bortezomib 2.5 nM, 7 days. How it is done:
OC activity was assayed by bone resorption enumerating resorption pits. Briefly, mononuclear cells (1.8×10^6 cell/well) from MM patient bone marrow were cultured in a 24-well plate coated with a synthetic carbonate apatite (CaP) (Cosmo Bio Co., Ltd, Tokio, Japan) and stimulated with RANKL (25 ng/ml) and M-CSF (25 ng/ml). […] On day 7 the conditioned medium was removed from each well and the wells were treated with 5% sodium hypochlorite for five minutes. After washing and drying, resorption pits were photographed by light microscopy and quantified by Image J software. Each pit area assay was performed at least 3 times with BM from different donors.

Data set [9] has as its system pERK, pAkt, c-fos in OCLs. As to the kind of experiment: Immunoblot of signaling pathway in OCLs. In kind it is cell-based, human. The conditions noted are these: OCLs differentiated 10 days, treated with Compound A and or bortezomib 24 hours. From the text: Samples were then subjected to sodium dodecyl sulfate-polyacrylamide gel electrophoresis, transferred to PVDF membrane, and immunoblotted with antibodies against pAkt, Akt, and c-fos (Cell Signaling Technology, Beverly, Mass.) or phosphorylated extracellular signal-regulated kinase (pERK). Antigen-antibody complexes were detected by enhanced chemiluminescence (Amersham, Arlington Heights, Ill.). The membrane was stripped and reprobed with antitubulin antibody to ensure equal protein loading. Films were scanned and densitometric analysis performed.

“Also recorded” adds a separate entry of the source.

On to `O=C(CCCCCCNC(=O)c1cnc(N(c2ccccc2)c2ccccc2)nc1)NO` [Compound A, 2-(diphenylamino)-N-(7-(hydroxyamino)-7-oxoheptyl)pyrimidine-5-carboxamide], for which the concentration for half-maximal inhibition (IC50) is greater than 10 µM at Sirtuin 1 (Sirtuin 1); greater than 1 µM against Sirtuin 1 (sirtuin 1, text (minimal activity)); greater than 10 µM against Sirtuin 2 (Sirtuin 2); greater than 1 µM at Sirtuin 2 (sirtuin 2, text (minimal activity)). Besides, the “acetylated α-tubulin” value with acetylated α-tubulin is given as “dose dependent significant increase in the acetylated α-tubulin was observed even in the presence of low doses (0.04 μM)”. For the same molecule, the “acetylation of lysine on Histone H3 and Histone H4” value in [1] was “less potent acetylation of lysine on Histone H3 and Histone H4 compared to SAHA”. The “ac-α-tubulin, Western blot” value with ac-α-tubulin [2] is on record as “significant increase of ac-α-tubulin in treated compared to control cells”. Besides, the “ac-α-tubulin, immunohistochemistry (IHC)” value in the data set with ac-α-tubulin [3] was “significant increase of ac-α-tubulin was observed in treated compared to control cells”. Moreover, the “acetyl-Histone H3, immunohistochemistry (IHC)” value in the data set with acetyl-Histone H3 was “without any significant increase in acetyl-Histone H3”. In addition, the “viability of OBLs (AlamarBlue)” value in [4] was “does not induce cytotoxicity on OBL cells; also recorded: does not affect the viability of osteoblasts (OBLs)”. Moreover, the “OBLs function (alkaline phosphatase (ALP) activity)” value in data set [5] is given as “increases OBLs function; also recorded: increases the alkaline phosphate activity”. Also, in data set [6], the “calcium deposits (Alizarin red staining)” value was “increases calcium deposits in OBL cells”. Also, the “number of OCLs (multinucleated TRAP-positive cells) per well” value in data set [7] (compared with bortezomib or untreated control wells, 7 and 14 days) is “significantly decreases the number of OCLs; also recorded: inhibits osteoclastogenesis”. Moreover, the “number of OCLs (multinucleated TRAP-positive cells) per well, dose dependence” value in data set [7] (days 7 and 14 of osteoclast differentiation) is “decreases the number of OCLs (multinucleated TRAP-positive cells) per well in a dose dependent manner; also recorded: inhibits osteoclastogenesis in a dose-dependent manner”. Besides, the “PIT formation (resorption pits)” value in data set [8] was “significantly arrested PIT formation”. Also, the “pERK, pAkt and c-fos expression (immunoblot)” value in data set [9] was “downregulation of pERK, pEKT and cFOS expression”.
